Measurements reported in patent US11266714B2, “Chloride salt of TAT-NR2B9C” (NoNO Inc., priority 2014, dated 2022).
No end group written: not given here.

Test: Solubility study of TAT-NR2B9c, visual analysis
Assay type: physicochemical
Conditions: pH 6.5, 35, 50, 75 and 100 mg/mL, t=0 and t=24 hours
Experimental: Due to the relatively low Tg temperatures that would likely require a longer lyophilization cycle to dry, we looked at a wider range of standard bulking agents and looked to reduce the fill volume into the container closure system so that there would be a reduced volume of liquid to lyophilize. […] Samples were visually analyzed at 35, 50, 75 and 100 mg/mL. All solutions were clear at t=0 and t=24 hours. […] A wide range of quantities may be required in a vial, but 270 mg would provide a […] dose for a 100 kg patient. Assuming the target reconstitution concentration for patient administration is still 20 mg/mL (but can be from 1 mg/ml to 100 mg/ml), then a 20-mL lyophilization vial containing 270 mg of TAT-NR2B9c can be used with a reconstitution volume of 13.5 mL. Therefore, optimal volumes of liquid for lyophilization of TAT-NR2B9c in the vial would be between 2.5 mL and 10 mL.

YGRKKRRQRRRKLSSIESDV [TAT-NR2B9c]
solubility, visual analysis (in Histidine+Trehalose): clear
solubility, visual analysis (in Histidine): clear
